Reference: patent publication US20230365673A1, “MEANS FOR REDUCING RADIO- AND CHEMOTHERAPY RESISTANCE AND ADVERSE EFFECTS” (JOHANN WOLFGANG GOETHE-UNIVERSITÄT FRANKFURT AM MAIN, priority 2020, published 2023)

Tested on: APTKA orthotopic tumours
Assay: Orthotopic APTKA organoid rectal cancer model with local fractionated radiotherapy (5×2 Gy)
Type: in vivo, C57BL/6 mice
Text: (A and B) Schematic representation of the orthotopic transplantation of APTKA & APTK mouse organoids into C57BL/6 mice followed by local fractionated radiotherapy (5×2 Gy) of established tumours and end point colonoscopy 21 days after the last irradiation. (C) Heat map analysis of RNA sequencing data of APTKA (n=4) and APTK (n=5) orthotopic tumours. (D) GSEA of CAF signature using RNA sequencing data of APTKA and APTK orthotopic tumours. Significant NES≤−1; FDR q-value<0.05. (E) H&E stained sections of APTK and APTKA untreated and irradiated orthotopic tumours 21 days after last irradiation. Scale bars=500 μm. (F and G) Overall tumour (mm3) and invasive area (%) of untreated (n=5) and irradiated (n=6) APTK orthotopic tumours. Data are mean±SD. *** p<0.001 and **** p<0.0001 by t-test. (H and I) Overall tumour (mm3) and invasive area (%) of untreated (n=5) and irradiated (n=5) APTKA orthotopic tumours. ** p<0.01 by t-test. Data are mean±SD. (J) Frequency of mice with liver metastasis in untreated or irradiated APTKA orthotopic tumours (n=5 mice per group). (K) H&E staining of untreated and irradiated APTKA orthotopic tumours. Scale bars=300 μm. Representative images of αSMA (Green), Vimentin (Blue) and Collagen (Yellow) multiplex immunofluorescence of untreated and irradiated APTKA tumours. Scale bars=400 μm. Sirius red staining of APTKA orthotopic tumours upon radiotherapy. Scale bars=300 μm. (L) Percent of αSMA, Vim and Col1 triple positive cells in untreated (n=9) and irradiated (n=10) APTKA tumours. Data are mean±SD. ** p<0.01 by t-test. (M) Sirius red pixel positivity in untreated (n=7) and irradiated (n=6) APTKA tumours. Data are mean±SD. * p<0.05 by t-test. (N-P) Ex vivo irradiation (5×2Gy) of APTKA and APTK organoids: (N) relative fluorescent units of untreated and irradiated organoids, 6 h post last dose, using resazurin cell viability kit (n=4 independent wells per condition); (O) quantification of the number of fully grown untreated and irradiated organoids 4 days' post first reseeding (n=7 to 9 independent wells per condition); (P) subcutaneous tumour growth in C57BL/6 mice transplanted with untreated or irradiated organoids. Data are mean±SD. N=6 mice per group; p<0.05 by one-way ANOVA followed by Tukey's multiple comparisons test. Representative results from one experiment which has been independently repeated least 3 times.
(A) Schematic representation of the orthotopic transplantation of APTKA mouse organoids into C57BL/6 mice followed by 5×2 Gy radiotherapy of established tumours untreated or treated daily with anakinra (500 μg/day) for 21 days. (B and C) Overall tumour size (mm3) and % invasive area of 5×2Gy radiated APTKA orthotopic tumours 21 days after last irradiation without (n=5) or with (n=4) anakinra treatment (500 μg/day). Data are mean±SD; p<0.05 by t-test. (D) Frequency of mice with liver metastasis upon irradiation of APTKA orthotopic tumours without (n=5) or with (n=4) anakinra treatment (500 μg/day). (E and F) Sirius red staining of untreated (n=3) or anakinra treated (n=4) 5×2 Gy irradiated APTKA tumours. Scale bars=200 μm. Data are mean±SD. *** p<0.001 by t-test. (G, H) αSMA immunofluorescent staining and its quantification of irradiated APTKA orthotopic tumours without (n=5) or with (n=4) anakinra treatment (500 μg/day). Scale bars=200 μm. Data are mean±SD; p<0.05 by t-test. (I) Schematic representation of IL-1α overexpression in APTK organoids by CRISPRa/Cas9. (J) ELISA of IL-1α protein levels in conditioned media from APTK sgctrl and APTK sgIL-1α organoids (n=4 independent wells per group). Data are mean±SD. **** p<0.0001 by t-test. (K) Relative RNA expression of inflammatory genes in fibroblasts treated with conditioned media from APTK sgctrl and APTK sgIL-1α organoids for 24 h (n=5 independent wells per condition). Data are mean±SD. **** p<0.0001 by t-test. Representative results from one experiment which has been independently repeated 2 times. […]

[1] = anakinra 500 μg/day plus 5×2 Gy
[2] = anakinra 500 μg/day plus 5×2 Gy, 21 days after last irradiation

What does the source list for “anakinra: Kineret®, an interleukin-1 receptor antagonist”?
APTKA tumour growth (anakinra 500 μg/day alone, no irradiation, data not shown): did not affect APTKA tumour growth significantly; metastasis formation (liver) [1]: blocked metastasis formation; number of αSMA+ cells [1]: decreased number of αSMA+cells; sirius red staining [1]: significant decrease in sirius red staining; invasion (% invasive area) [2]: marked reduction in tumour size and invasion; tumour size [2]: marked reduction in tumour size
